Results as given in PMC6707612, “Cyclic-di-GMP binds to histidine kinase RavS to control RavS-RavR phosphotransfer and regulates the bacterial lifestyle transition between virulence and swimming” (PLoS Pathogens, 2019).
“Also recorded” adds a separate entry of the source.

How the values were obtained:
RavS^ΔTrM = target: T1, RavS^ΔTrM (Xanthomonas campestris pv. campestris, UniProt Q8P9A6); test: microscale thermophoresis (MST) binding; settings: 20 nM fluorescein-labelled nucleotide
T1 sequence (Q8P9A6 47-697): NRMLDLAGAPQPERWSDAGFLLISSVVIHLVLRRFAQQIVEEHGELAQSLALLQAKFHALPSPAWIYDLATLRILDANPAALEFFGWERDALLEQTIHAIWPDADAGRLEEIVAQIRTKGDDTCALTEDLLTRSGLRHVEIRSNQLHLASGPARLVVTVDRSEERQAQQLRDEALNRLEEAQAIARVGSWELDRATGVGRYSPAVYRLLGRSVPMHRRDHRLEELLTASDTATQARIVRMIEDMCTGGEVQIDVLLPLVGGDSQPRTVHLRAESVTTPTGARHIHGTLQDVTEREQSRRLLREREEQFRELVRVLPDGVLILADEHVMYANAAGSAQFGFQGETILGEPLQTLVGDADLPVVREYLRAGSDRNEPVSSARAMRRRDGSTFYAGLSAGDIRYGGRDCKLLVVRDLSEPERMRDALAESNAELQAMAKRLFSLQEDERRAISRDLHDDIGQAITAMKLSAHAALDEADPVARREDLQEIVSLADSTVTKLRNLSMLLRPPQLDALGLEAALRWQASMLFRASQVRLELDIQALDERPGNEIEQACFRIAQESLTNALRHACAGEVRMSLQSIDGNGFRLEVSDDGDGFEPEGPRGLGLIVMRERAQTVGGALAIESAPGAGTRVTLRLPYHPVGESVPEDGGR
Description: (a) c-di-GMP enhances RavS-RavR phosphotransfer in vitro. A total of 5 μM RavS^ΔN was autophosphorylated for 15 min by the addition of 10 μCi [γ-^32P]ATP. A total of 15 μM RavR^ΔEAL or RavR^ΔEAL(D496A) was added and incubated for 30 min at 25°C. A total of 100 μM c-di-GMP was added if necessary. The reactions were terminated with 5× SDS loading buffer before autoradiography. The experiment was repeated three times. (b) Time course analyses of the impact of c-di-GMP on the velocity of RavS-RavR phosphotransfer. The autophosphorylation and phosphotransfer reactions were set as mentioned in (a). Various concentrations of c-di-GMP were added to the reactions and isotopic signals (band intensities) of RavS~P were measured after autoradiography. (c–d) c-di-GMP triggered an increase in RavS-RavR phosphotransfer in a dose-dependent manner. (c) Various concentrations of c-di-GMP (0, 5, 10, 15, 30, 50, 75 and 100 μM) were added to the RavS-RavR phosphotransfer reactions. (d) The phosphorylated level of RavS^ΔN~P was quantified by ImageJ and the EC50 value was estimated by Origin 8.5 software. In (b) and (d), the intensity of each data point is the average from three experimental repeats. (e) c-di-GMP triggered increase in RavS-RavR phosphotransfer is highly specific. […] The interaction between RavS^ΔTrM and various nucleotides, including fl-c-di-GMP, fl-cGMP and fl-c-di-AMP, were measured by microscale thermophoresis (MST). A total of 20 nM fluorescein-labelled nucleotides and increasing concentrations of proteins were incubated and measured by MST. The dissociation constant (Kd) was quantified to estimate the binding affinity. […]
The interaction between c-di-GMP nucleotides and various proteins was measured by using MST with a fluorescein-labelled c-di-GMP (2′-Fluo-AHC-c-di-GMP, abbreviated as fl-c-di-GMP; 2′-Fluo-AHC-c-di-AMP, fl-c-di-AMP; 2′-Fluo-AHC-cGMP, fl-cGMP; Biolog, Germany). These chemicals contain carboxyfluorescein that has excitation and emission wavelengths of 497 nm and 520 nm, respectively, which can be detected directly by a MST instrument. […]

RavS^ΔN = target: T2, RavS^ΔN (Xanthomonas campestris pv. campestris, UniProt Q8P9A6); test: in vitro RavS-RavR phosphotransfer assay (RavS~P level by autoradiography); format: biochemical; settings: specificity control nucleotides
T2 sequence (Q8P9A6 352-697): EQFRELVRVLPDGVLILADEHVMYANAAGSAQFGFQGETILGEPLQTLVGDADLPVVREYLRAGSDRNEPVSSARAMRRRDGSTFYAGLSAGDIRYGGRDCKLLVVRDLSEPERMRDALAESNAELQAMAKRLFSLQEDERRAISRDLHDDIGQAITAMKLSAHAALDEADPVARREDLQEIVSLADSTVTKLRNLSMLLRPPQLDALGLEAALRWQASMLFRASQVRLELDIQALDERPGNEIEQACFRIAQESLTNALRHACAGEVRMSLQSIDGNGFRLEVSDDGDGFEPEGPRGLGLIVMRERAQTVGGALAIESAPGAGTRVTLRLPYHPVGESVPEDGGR
Description: (a) c-di-GMP enhances RavS-RavR phosphotransfer in vitro. A total of 5 μM RavS^ΔN was autophosphorylated for 15 min by the addition of 10 μCi [γ-^32P]ATP. A total of 15 μM RavR^ΔEAL or RavR^ΔEAL(D496A) was added and incubated for 30 min at 25°C. A total of 100 μM c-di-GMP was added if necessary. The reactions were terminated with 5× SDS loading buffer before autoradiography. The experiment was repeated three times. (b) Time course analyses of the impact of c-di-GMP on the velocity of RavS-RavR phosphotransfer. The autophosphorylation and phosphotransfer reactions were set as mentioned in (a). Various concentrations of c-di-GMP were added to the reactions and isotopic signals (band intensities) of RavS~P were measured after autoradiography. (c–d) c-di-GMP triggered an increase in RavS-RavR phosphotransfer in a dose-dependent manner. (c) Various concentrations of c-di-GMP (0, 5, 10, 15, 30, 50, 75 and 100 μM) were added to the RavS-RavR phosphotransfer reactions. (d) The phosphorylated level of RavS^ΔN~P was quantified by ImageJ and the EC50 value was estimated by Origin 8.5 software. In (b) and (d), the intensity of each data point is the average from three experimental repeats. (e) c-di-GMP triggered increase in RavS-RavR phosphotransfer is highly specific. […] (f) RavS specifically interacts with fl-c-di-GMP. The interaction between RavS^ΔTrM and various nucleotides, including fl-c-di-GMP, fl-cGMP and fl-c-di-AMP, were measured by microscale thermophoresis (MST). A total of 20 nM fluorescein-labelled nucleotides and increasing concentrations of proteins were incubated and measured by MST. The dissociation constant (Kd) was quantified to estimate the binding affinity. Each experiment was repeated three times.
An in vitro autophosphorylation assay was conducted as described in our previous study. Purified protein was incubated with 10 μM ATP containing 10 μCi [γ-^32P]ATP (PerkinElmer, USA) in the reaction buffer (50 mM Tris-HCl, pH 7.8, 25 mM NaCl, 25 mM KCl, 5 mM MgCl2, 2 mM DTT) for the indicated time at 28°C. If necessary, c-di-GMP was added to the mixture at the same time as ATP. For the phosphoryl transfer assay, purified RR protein or its derivative was added into the reaction mixture containing the phosphorylated HK. The autophosphorylation or phosphoryl transfer reaction was terminated by adding 5× SDS-PAGE loading buffer. Phosphorylated proteins were separated by 12% SDS-PAGE. After electrophoresis, gels were exposed to a phosphor screen (GE Healthcare) and the autoradiographic signals were detected by a Typhoon FLA7000 (GE Healthcare).

[1] = target: EAL domain of RavR (Xanthomonas campestris pv. campestris); test: SEC + AUC; purified EAL protein, 15 uM, incubated with 300 uM c-di-GMP in phosphodiesterase reaction buffer (50 mM Tris-HCl pH 7.5, 250 mM NaCl, 25 mM KCl, 10 mM MgCl2, 2 mM DTT) at 4 C for 30 min; Superdex 75 10/300 GL to separate dimer and monomer; molecular weight of each fraction determined by analytical ultracentrifugation

Molecule	impact on RavS phosphotransferase activity / velocity of RavS-RavR phosphotransfer (RavS^ΔN)	also measured
2′-Fluo-AHC-c-di-AMP [fl-c-di-AMP]		dissociation constant (Kd) (RavS^ΔTrM): no binding; also recorded: completely failed to bind
2′-Fluo-AHC-cGMP [fl-cGMP]		Kd (RavS^ΔTrM; read-out: dissociation constant (Kd)): 64.4 ± 9.43 µM
Nc1nc2c(ncn2[C@@H]2O[C@H](COP(=O)(O)O)[C@@H](O)[C@H]2O)c(=O)[nH]1 [GMP]	did not affect; also recorded: did not have any impact	
Nc1nc2c(ncn2[C@@H]2O[C@H](COP(=O)(O)OP(=O)(O)OP(=O)(O)O)[C@@H](O)[C@H]2O)c(=O)[nH]1 [GTP]	did not affect; also recorded: did not have any impact	
Nc1ncnc2c1ncn2[C@@H]1O[C@@H]2COP(=O)(O)O[C@H]3[C@@H](O)[C@H](n4cnc5c(N)ncnc54)O[C@@H]3COP(=O)(O)O[C@H]2[C@H]1O [c-di-AMP]	did not affect; also recorded: did not have any impact	
Nc1nc2c(ncn2[C@@H]2O[C@@H]3COP(=O)(O)O[C@H]3[C@H]2O)c(=O)[nH]1 [cGMP]	did not affect; also recorded: did not have any impact	
EAL domain of RavR (domain or fragment)		stoichiometry N [1]: 2
